Measurements reported in patent publication EP0098615A1, “1-Oxadethiacephalosporin compound and antibacterial agent containing the same” (MEIJI SEIKA KAISHA LTD., priority 1982, dated 1984).
≈ marks a conversion by molar mass, not a printed value. Read-outs that look alike come from different tables or passages of the source.

Columns and labels:
[1] = tested on: Staphylococcus aureus Smith; experiment: MIC by serial dilution method on agar plates; format: cell-based; conditions: read-out: Minimum inhibitory concentrations (MIC.)
[2] = tested on: Staphylococcus aureus 209P JC-1; experiment: MIC by serial dilution method on agar plates; format: cell-based; conditions: read-out: Minimum inhibitory concentrations (MIC.)
[3] = tested on: Escherichia coli NIHJ JC-2; experiment: MIC by serial dilution method on agar plates; format: cell-based
[4] = tested on: Klebsiella pneumoniae PCI 602; experiment: MIC by serial dilution method on agar plates; format: cell-based
Proteus mirabilis GN 79 = experiment: MIC by serial dilution method on agar plates; format: cell-based
[5] = tested on: Salmonella typhimurium LT-2; experiment: MIC by serial dilution method on agar plates; format: cell-based; conditions: Salmonella enterica, read-out: Minimum inhibitory concentrations (MIC.)
Proteus vulgaris GN 76 = experiment: MIC by serial dilution method on agar plates; format: cell-based
Protues rettgeri GN 624 = experiment: MIC by serial dilution method on agar plates; format: cell-based; conditions: read-out: Minimum inhibitory concentrations (MIC.)
[6] = tested on: Serratia marcescens No. 2; experiment: MIC by serial dilution method on agar plates; format: cell-based
Escherichia coli No. 29 = experiment: Curative effect of oral administration in infected mice (survival); format: in vivo; conditions: three mice in each group, i.p. inoculum 3.25 x 10^5 CFU/mouse, 7 days observation
Text: Thus, some tests were made to evaluate the curative effects of the new compound of this invention in therapeutic treatment of bacterial infections when the new compound was orally given to mice (average body weight 20 g) which had been infected with Escherichia coli No. 29. In these tests for therapeutic treatment of the bacterial infection, mice (three mice in each group) were inoculated intraperitoneally with Escherichia coli No. 29 at an inoculum dose of 3.25 x 10^5 CFU/mouse and then immediately treated by oral administration of the test compound. For the subsequent 7 days, the mice were kept under observation and the number of surviving mice was counted.

[7] = Staphylococcus aureus Smith, serial dilution on agar plates
[8] = Staphylococcus aureus 209P JC-1, serial dilution on agar plates
[9] = NIHJJC2, Escherichia coli NIHJ JC-2, serial dilution on agar plates, read-out: Minimum inhibitory concentrations (MIC.)
[10] = PCI602, Klebsiella pneumoniae PCI 602, serial dilution on agar plates, read-out: Minimum inhibitory concentrations (MIC.)
[11] = GN79, Proteus mirabilis GN 79, serial dilution on agar plates, read-out: Minimum inhibitory concentrations (MIC.)
[12] = Salmonella typhimurium LT-2, serial dilution on agar plates
[13] = GN76, Proteus vulgaris GN 76, serial dilution on agar plates, read-out: Minimum inhibitory concentrations (MIC.)
[14] = Protues rettgeri GN 624, serial dilution on agar plates
[15] = Serratia marcescens No. 2, serial dilution on agar plates, read-out: Minimum inhibitory concentrations (MIC.)

Compound | MIC [1, 7] [µg/mL] | MIC [2, 8] [µg/mL] | MIC [3, 9] [µg/mL] | MIC [4, 10] [µg/mL] | MIC (Proteus mirabilis GN 79; [11]) [µg/mL] | MIC [5, 12] [µg/mL] | MIC (Proteus vulgaris GN 76; [13]) [µg/mL] | MIC (Protues rettgeri GN 624; [14]) [µg/mL] | MIC [6, 15] [µg/mL] | number of surviving mice (Escherichia coli No. 29; 0.1 mg/mouse oral) | number of surviving mice (Escherichia coli No. 29; 1 mg/mouse oral) | number of surviving mice (Escherichia coli No. 29; 5 mg/mouse oral) | number of surviving mice (Escherichia coli No. 29; 10 mg/mouse oral) | other results
COC1=C(C(=O)O)N2C(=O)[C@@H](NC(=O)[C@H](N)C3=CCC=CC3)[C@H]2SC1 [Cefroxadine, reference compound] | 1.56 (≈ 4.27 µM) | 1.56 (≈ 4.27 µM) | 3.13 (≈ 8.57 µM) | 3.13 (≈ 8.57 µM) | 50 (≈ 137 µM) | 6.25 (≈ 17.1 µM) | > 100 | > 100 | 100 (≈ 274 µM) | 0 | 0 | 3 | 3 | –
CSC1=C(C(=O)O)N2C(=O)C(NC(=O)Cc3ccsc3)C2OC1 (centres unmarked) [Example 2(b), 7-(3-thienylacetamido)-1-oxa-1-dethia-3-methylthio-3-cephem-4-carboxylic acid] | 0.1 (≈ 0.282 µM) | 0.05 (≈ 0.141 µM) | 6.25 (≈ 17.6 µM) | 1.56 (≈ 4.4 µM) | 25 (≈ 70.5 µM) | 1.56 (≈ 4.4 µM) | > 100 | > 100 | > 100 | – | – | – | – | –
CSC1=C(C(=O)O)N2C(=O)C(NC(=O)C(C(=O)O)c3ccsc3)C2OC1 (centres unmarked) [Example 4(b), 7-[2-(3-thienyl)-2-carboxyacetamido]-1-oxa-1-dethia-3-methylthio-3-cephem-4-carboxylic acid] | 3.13 (≈ 7.86 µM) | 1.56 (≈ 3.92 µM) | 0.78 (≈ 1.96 µM) | 0.39 (≈ 0.979 µM) | 1.56 (≈ 3.92 µM) | 0.2 (≈ 0.502 µM) | 50 (≈ 125 µM) | 1.56 (≈ 3.92 µM) | 0.39 (≈ 0.979 µM) | – | – | – | – | –
CSC1=C(C(=O)O)N2C(=O)C(NC(=O)C(C(=O)O)c3cccs3)C2OC1 (centres unmarked) [Example 3(b), 7-[2-(2-thienyl)-2-carboxyacetamide]-1-oxa-1-dethia-3-methylthio-3-cephem-4-carboxylic acid] | 0.39 (≈ 0.979 µM) | 0.2 (≈ 0.502 µM) | 0.78 (≈ 1.96 µM) | 0.78 (≈ 1.96 µM) | 6.25 (≈ 15.7 µM) | 0.78 (≈ 1.96 µM) | 50 (≈ 125 µM) | 3.13 (≈ 7.86 µM) | 3.13 (≈ 7.86 µM) | – | – | – | – | –
CO/N=C(\C(=O)NC1C(=O)N2C(C(=O)O)=C(SC)COC12)c1csc(N)n1 (centres unmarked) [Example 6(b), 7-[2-(2-amino-4-thiazolyl)-2-methoxy-iminoacetamido]-1-oxa-1-dethia-3-methyl-thio-3-cephem-4-carboxylic acid tri-fluoroacetate] | – | – | – | – | – | – | – | – | – | 1 | 3 | 3 | 3 | MIC ([1]; Staphylococcus aureus): 3.13 µg/mL (≈ 7.57 µM); MIC ([2]; Staphylococcus aureus, 209P): 1.56 µg/mL (≈ 3.77 µM); MIC ([3]; Escherichia coli, NIHJJC2, read-out: Minimum inhibitory concentrations (MIC.)): 0.78 µg/mL (≈ 1.89 µM); MIC ([4]; Klebsiella pneumoniae, PCI602, read-out: Minimum inhibitory concentrations (MIC.)): 0.1 µg/mL (≈ 0.242 µM); MIC (Proteus mirabilis GN 79; Proteus mirabilis, GN79, read-out: Minimum inhibitory concentrations (MIC.)): 0.39 µg/mL (≈ 0.943 µM); MIC ([5]; TYPHIMURIUM): 0.05 µg/mL (≈ 0.121 µM); MIC (Proteus vulgaris GN 76; Proteus vulgaris, GN76, read-out: Minimum inhibitory concentrations (MIC.)): > 100 µg/mL; MIC (Protues rettgeri GN 624): 3.13 µg/mL (≈ 7.57 µM); MIC ([6]; Serratia marcescens, NO.2, read-out: Minimum inhibitory concentrations (MIC.)): 0.78 µg/mL (≈ 1.89 µM)
CSC1=C(C(=O)O)N2C(=O)C(NC(=O)Cc3cccs3)C2OC1 (centres unmarked) [Example 1(b), 7-(2-thienylacetamido)-1-oxa-1-dethia-3-methylthio-3-cephem-4-carboxylic acid] | 0.2 (≈ 0.564 µM) | 0.2 (≈ 0.564 µM) | 6.25 (≈ 17.6 µM) | 1.56 (≈ 4.4 µM) | 25 (≈ 70.5 µM) | 1.56 (≈ 4.4 µM) | > 100 | > 100 | > 100 | – | – | – | – | –
